{"source": "patent US11230542B2", "about": "“Inhibitors of integrated stress response pathway” (Praxis Biotech LLC, priority 2017, dated 2022)", "type_in_all_cases": "in vivo, mouse", "key": {"[1]": {"system": "19-month old male C57Bl/6J mice", "test": "Learning memory in aged mice (8-arm radial water maze, hippocampal ATF4)", "conditions": "5 mg/kg intraperitoneally, versus vehicle", "from_the_text": "Wild type 19-month old male C57Bl/6J mice were used in an 8-arm radial water maze (RAWM) to measure the hippocampal-mediated learning memory. The maze involved a pool 118.5 cm in diameter and 25 cm high with 8 arms, each 41 cm in length, and an escape platform that could be moved. The pool was filled with water that was rendered opaque by adding white paint (Crayola, 54-2128-053). The escape platform remains hidden during the experiment. Visual cues were placed around the room such that they were visible to animals exploring the maze. […]\nBehavioral tests were recorded and scored using a video tracking and analysis setup (Ethovision XT 8.5, Noldus Information Technology). The program automatically analyzed the number of incorrect arm entries (termed number of errors) made per trial. […]\nAt the end of the behavioral test, animals were sacrificed and the hippocampi were extracted and immediately frozen in liquid nitrogen and then stored at −80° C. […] Protein concentration in supernatants was determined using BCA Protein Assay Kit (Pierce). […]\nATF4 (11815) antibody (Cell Signaling Technologies) and β-actin (Sigma-Aldrich) antibodies were used as primary antibodies. […] Quantification of protein bands was done by densitometry using ImageJ software."}, "fasted Balb/c mice": {"system": "fasted Balb/c mice", "test": "Fasting-induced muscle atrophy", "conditions": "10 mg/kg oral", "experimental": "Wild type eight-weeks-old male Balb/c mice obtained from the vivarium Fundacion Ciencia & Vida Chile (Santiago, Chile) were used. Mice were housed in independent plastic cages in a room maintained at 25° C. with a 12-h:12-h light:dark cycle.\nTwenty-four hours before and during the 2 days of fasted procedures, animals received oral administration via feeding tubes (15 gauge) of vehicle (50% Polyethylene glycol 400 (Sigma-Aldrich P3265) in distilled water or 10 mg/kg of compound 3 formulated in vehicle solution.\nAfter 2 days of fasting the animals were sacrificed and muscles were removed from both hindlimbs. Mice with feed and water ad libitum were used as control.\nFor in vivo measurements of protein synthesis, puromycin (Sigma-Aldrich, P8833) was prepared at 0.04 μmol/g body weight in a volume of 200 μL of PBS, and subsequently administered into the animals via IP injection, 30 min prior to muscle collection.\n(§1) Upon collection, muscles were immediately frozen in liquid nitrogen and then stored at −80° C. […] Protein concentration in supernatants was determined using BCA Protein Assay Kit (Pierce). […]\nPuromycin (12D10) (Merck Millipore) and β-actin (Sigma-Aldrich) antibodies were used as primary antibodies. […] Quantification of protein bands was done by densitometry using ImageJ software. […]"}, "[2]": {"system": "Balb/c mice injected with CT26 colon carcinoma cell line", "test": "Cachexia-induced muscle atrophy (CT26 tumor cells)", "conditions": "10 mg/kg daily oral gavage for 13 days", "experimental": "Wild type six-weeks-old male Balb/c mice obtained from the vivarium Fundacion Ciencia & Vida Chile (Santiago, Chile) were used. Mice were housed in independent plastic cages in a room maintained at 25° C. with a 12-h:12-h light:dark cycle.\n1×10^6 CT26 colon carcinoma cell line (ATCC #CRL-2638, ATCC Manassas, Va.) were injected subcutaneously in the right lower flank of each animal for induction of cachexia-induced muscle atrophy as described (Nat Commun. 2012 Jun. 12; 3:896). Non-injected animals were used as controls. At day 6 post tumor-cell injection, animals were randomized into two groups and treated with 10 mg/kg of compound 3 formulated in 50% Polyethylene glycol (PEG-400) in distilled water, or with vehicle (50% PEG-400 in distilled water) by daily oral gavage for 13 days.\nFor in vivo measurements of protein synthesis, 30 min before the study ends, animals were injected intraperitoneally with puromycin (Sigma-Aldrich, P8833) at 0.04 μmol/g body weight in a volume of 200 μL of PBS. […]\nas §1\nPuromycin (12D10) (Merck Millipore) and β-actin (Sigma-Aldrich) antibodies were used as primary antibodies. […] Quantification of protein bands was done by densitometry using ImageJ software."}}, "data": [{"molecule": "O=C(COc1ccc(Cl)cc1)N[C@H]1CC[C@H](NC[C@@H](O)COc2ccc(Cl)cc2)CC1", "note": "(single isomer, unassigned) [Compound 3, (+)-2-(4-chlorophenoxy)-N-(4-((3-(4-chlorophenoxy)-2-hydroxypropyl)amino)cyclohexyl)acetamide]", "values": [{"measurement": "ATF4 expression normalized to β-actin in hippocampi", "setting": "[1]", "value": "lower levels of ATF4 expression compared with vehicle-treated animals"}, {"measurement": "RAWM task performance (learning memory)", "setting": "[1]", "value": "performed better than vehicle-treated animals"}, {"measurement": "protein synthesis, puromycin staining in muscle fiber CSA", "setting": "fasted Balb/c mice", "value": "partial recovery of protein synthesis"}, {"measurement": "muscle weight (gastrocnemius, quadriceps, tibialis anterior)", "setting": "[2]", "value": "prevented the CT26-induced muscle weight loss"}, {"measurement": "protein synthesis in muscle", "setting": "[2]; quadriceps and tibialis anterior, versus vehicle", "value": "significantly increase protein synthesis"}]}]}
